US8410153B2, “Naphthalene isoxazoline invertebrate pest control agents” (E.I. du Pont de Nemours and Company, priority 2007, dated 2013)

What was measured:
Format in all cases: in vivo
[1] = test system: diamondback moth (Plutella xylostella); assay: Test A: control of diamondback moth on radish plant, foliar spray; conditions: sprayed at 50 ppm, held 6 days
In short: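 Radish plants 12–14 days old, pre-infested with about 50 neonate larvae, sprayed at 50 ppm in 10% acetone/water with 300 ppm X-77 surfactant; three replicates. After 6 days at 25° C and 70% RH, feeding damage was scored visually and mortality counted.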

[2] = test system: fall armyworm (Spodoptera frugiperda); assay: Test B: control of fall armyworm on corn (maize) plant, foliar spray; conditions: sprayed at 50 ppm
In short: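 4-5-day-old corn plants pre-infested with 10-15 1-day-old larvae on insect diet, then sprayed with compound at 50 ppm in 10% acetone/90% water with 300 ppm surfactant, three replicates. Held 6 days at 25° C, 70% RH; feeding damage assessed visually and mortality rated.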

[3] = test system: western flower thrips (Frankliniella occidentalis); assay: Test E: control of western flower thrips on Soleil bean plant, contact and/or systemic; conditions: held 6 days
In short: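 5–7-day-old Soleil bean plants were sprayed at 250 or 50 ppm in 10% acetone/90% water with 300 ppm X-77 surfactant, three replicates. After drying 1 h, 22–27 adult thrips were added per unit. Mortality and plant damage were rated after 6 days at 25 °C and 45–55% RH.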

Measured: levels of control efficacy (20% or less feeding damage or 80% or more mortality)

CSCCNC(=O)c1ccc(C2=NOC(c3cc(Br)cc(Br)c3)(C(F)(F)F)C2)c2ccccc12 (stereo not drawn) [Compound 21]
very good to excellent: [1] | [2] | [3]; sprayed at 50 ppm | [3]; sprayed at 250 ppm

CSCCCNC(=O)c1ccc(C2=NOC(c3cc(Cl)cc(Cl)c3)(C(F)(F)F)C2)c2ccccc12 (stereo not drawn) [Compound 22]
very good to excellent: [1] | [2] | [3]; sprayed at 50 ppm | [3]; sprayed at 250 ppm

O=C(CNC(=O)c1ccc(C2=NOC(c3cc(Br)cc(Br)c3)(C(F)(F)F)C2)c2ccccc12)NCC(F)(F)F (stereo not drawn) [Compound 23]
very good to excellent: [1] | [2] | [3]; sprayed at 50 ppm | [3]; sprayed at 250 ppm

CC(C)(C)NC(=O)CNC(=O)c1ccc(C2=NOC(c3cc(Cl)cc(Cl)c3)(C(F)(F)F)C2)c2ccccc12 (stereo not drawn) [Compound 24]
very good to excellent: [1] | [2] | [3]; sprayed at 250 ppm

CCC(CC)NC(=O)CNC(=O)c1ccc(C2=NOC(c3cc(Cl)cc(Cl)c3)(C(F)(F)F)C2)c2ccccc12 (stereo not drawn) [Compound 25]
very good to excellent: [1] | [2] | [3]; sprayed at 250 ppm

CSCCC(C)NC(=O)c1ccc(C2=NOC(c3cc(Cl)cc(Cl)c3)(C(F)(F)F)C2)c2ccccc12 (stereo not drawn) [Compound 26]
very good to excellent: [1] | [2] | [3]; sprayed at 50 ppm | [3]; sprayed at 250 ppm

CSCC(C)(C)NC(=O)c1ccc(C2=NOC(c3cc(Cl)cc(Cl)c3)(C(F)(F)F)C2)c2ccccc12 (stereo not drawn) [Compound 27]
very good to excellent: [1] | [2] | [3]; sprayed at 50 ppm | [3]; sprayed at 250 ppm

COCCNC(=O)c1ccc(C2=NOC(c3cc(Cl)cc(Cl)c3)(C(F)(F)F)C2)c2ccccc12 (stereo not drawn) [Compound 28]
very good to excellent: [1] | [2] | [3]; sprayed at 50 ppm | [3]; sprayed at 250 ppm

CSCC(C)NC(=O)c1ccc(C2=NOC(c3cc(Cl)cc(Cl)c3)(C(F)(F)F)C2)c2ccccc12 (stereo not drawn) [Compound 30]
very good to excellent: [1] | [2] | [3]; sprayed at 250 ppm
